In one experiment the target is T1, CDK2/CycE (Homo sapiens, UniProt P24941).
T1 construct: GST; purchased ProQinase GmbH (Freiburg, Germany); host or cells: insect cells (Sf9)
Briefly: CDK2/CycE kinase assay (TR-FRET). It is filed as biochemical. As to conditions: avg, read-out: CDK2 avg (IC50 [mol/l]). Summed up: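 GST-tagged human CDK2 and CycE from Sf9 cells, preincubated 15 min with compound, then 25 min at 22° C. with 10 μM ATP and 0.75 μM biotinylated Rb-derived peptide (final). Phospho-substrate read by TR-FRET (anti-pRB pSer807/pSer811, Eu anti-mouse IgG, streptavidin-XL665), 665/620 nm ratio, normalised to no-inhibitor and no-enzyme controls.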
On the technique in general: Time-resolved FRET reads energy transfer from a long-lived donor to a nearby acceptor.

In experiment [1] the test system is human cervical tumor cell line HeLa (ATCC CCL-2). Description: SAC-Formation - Paclitaxel-Induced Assay. The experiment is classed as cell-based. As to conditions: Homo sapiens, HeLa, 24 h, HeLa cells, paclitaxel 0.05 μM, test range 0.005 μM-20 μM, read-out: IC50 [mol/l] SAC-Formation - Paclitaxel-Induced Assay. The procedure, abridged:
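HeLa cells incubated overnight at 37° C, then given paclitaxel (0.05 μM final) plus test compound (0.005–20 μM, 0.5% DMSO) together for 24 h at 37° C. Fixed cells stained for phospho-histone H3 Ser10 (mitotic cells) and Hoechst 33342 (cell count); imaging-derived mitotic index fitted by four-parameter Hill equation.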

Bounds are passed on as bounds.

In the case of `Cc1nsc(Nc2cnc(C(F)(F)F)cn2)c1C(=O)Nc1ccc(F)c(OC[C@H]2CCN(CC(F)F)C2)c1` [Example 397, N-(3-{[(3S)-1-(2,2-difluoroethyl)pyrrolidin-3-yl]methoxy}-4-fluorophenyl)-3-methyl-5-{[5-(trifluoromethyl)pyrazin-2-yl]amino}-1,2-thiazole-4-carboxamide], the IC50 is more than 20000 nM on CDK2/CycE and 82 nM in experiment [1].
The like results for `Cc1nsc(Nc2cnc(C(F)(F)F)cn2)c1C(=O)Nc1ccc(C2CCN(CC(F)F)CC2)nc1` [Example 357, N-{6-[1-(2,2-difluoroethyl)piperidin-4 yl]pyridin-3-yl}-3-methyl-5-{[5-(trifluoromethyl)pyrazin-2-yl]amino}-1,2-thiazole-4-carboxamide] were, in that order, more than 20000 nM and 99 nM.
The corresponding values for `Cc1nsc(Nc2cnc(C(F)(F)F)cn2)c1C(=O)Nc1ccc(N2CCN(CC(F)F)CC2)cn1` [Example 372, N-{5-[4-(2,2-difluoroethyl)piperazin-1-yl]pyridin-2-yl}-3-methyl-5-{[5-(trifluoromethyl)pyrazin-2-yl]amino}-1,2-thiazole-4-carboxamide] are more than 20000 nM and 330 nM.
The like results for `Cc1nsc(Nc2cnc(C(F)(F)F)cn2)c1C(=O)Nc1ccc(OCCCN(C)CC(F)(F)F)nc1` [Example 354, 3-methyl-N-(6-{3-[methyl(2,2,2-trifluoroethyl)amino]propoxy}pyridin-3-yl)-5-{[5-(trifluoromethyl)pyrazin-2-yl]amino}-1,2-thiazole-4-carboxamide] were, in that order, not below 20000 nM and 120 nM.
Turning to `Cc1nsc(Nc2cnc(C(F)(F)F)cn2)c1C(=O)Nc1ccc(F)c(OC[C@@H]2CCCN(CC(F)(F)F)C2)c1` [Example 342, N-(4-fluoro-3-{[(3R)-1-(2,2,2-trifluoroethyl)piperidin-3-yl]methoxy}phenyl)-3-methyl-5-{[5-(trifluoromethyl)pyrazin-2-yl]amino}-1,2-thiazole-4-carboxamide], the IC50 was more than 20000 nM on CDK2/CycE and 110 nM in experiment [1].
The like results for `Cc1nsc(Nc2cnc(C(F)(F)F)cn2)c1C(=O)Nc1ccc(O[C@H]2CCN(CCC(F)(F)F)C[C@@H]2F)nc1` [Example 364, N-(6-{[(3S,4S)-3-fluoro-1-(3,3,3-trifluoropropyl)piperidin-4-yl]oxy}pyridin-3-yl)-3-methyl-5-{[5-(trifluoromethyl)pyrazin-2-yl]amino}-1,2-thiazole-4-carboxamide] were, in that order, more than 20000 nM and 40 nM.
The corresponding values for `Cc1nsc(Nc2cnc(C(F)(F)F)cn2)c1C(=O)Nc1ccc(OC[C@@H]2CCCN(CC(F)(F)F)C2)nc1` [Example 376, 3-methyl-N-(6-{[(3R)-1-(2,2,2-trifluoroethyl)piperidin-3-yl]methoxy}pyridin-3-yl)-5-{[5-(trifluoromethyl)pyrazin-2-yl]amino}-1,2-thiazole-4-carboxamide] are more than 20000 nM and 44 nM.
The like results for `Cc1nsc(Nc2cnc(C(F)(F)F)cn2)c1C(=O)Nc1ccc(C2CCN(CC(F)(F)F)CC2)nc1` [Example 358, 3-methyl-N-{6-[1-(2,2,2-trifluoroethyl)piperidin-4-yl]pyridin-3-yl}-5-{[5-(trifluoromethyl)pyrazin-2-yl]amino}-1,2-thiazole-4-carboxamide] were, in that order, more than 20000 nM and 68 nM.
`Cc1nsc(Nc2cnc(C(F)(F)F)cn2)c1C(=O)Nc1ccc(F)c(OCC2CCCN(CCF)C2)c1` (stereo not shown) [Example 336, N-(4-fluoro-3-{[1-(2-fluoroethyl)piperidin-3-yl]methoxy}phenyl)-3-methyl-5-{[5-(trifluoromethyl)pyrazin-2-yl]amino}-1,2-thiazole-4-carboxamide]: the results for the IC50 (on CDK2/CycE; in experiment [1]) were not below 20000 nM and 61 nM, respectively.
The corresponding values for `Cc1nsc(Nc2cnc(C(F)(F)F)cn2)c1C(=O)Nc1ccc(O[C@@H]2CCN(CCC(F)(F)F)C[C@H]2F)nc1` [Example 368, N-(6-{[(3R,4R)-3-fluoro-1-(3,3,3-trifluoropropyl)piperidin-4-yl]oxy}pyridin-3-yl)-3-methyl-5-{[5-(trifluoromethyl)pyrazin-2-yl]amino}-1,2-thiazole-4-carboxamide] are more than 20000 nM and 64 nM.
The corresponding values for `Cc1nsc(Nc2cnc(C(F)(F)F)cn2)c1C(=O)Nc1ccc(F)c(OCC2CCCN(CC(F)F)C2)c1` (stereo not shown) [Example 334, N-(3-{[1-(2,2-difluoroethyl)piperidin-3-yl]methoxy}-4-fluorophenyl)-3-methyl-5-{[5-(trifluoromethyl)pyrazin-2-yl]amino}-1,2-thiazole-4-carboxamide] are not below 20000 nM and 56 nM.
For `Cc1nsc(Nc2ccc(C#N)cn2)c1C(=O)Nc1ccc(OC2CCN(CCF)CC2)nc1` [Example 29, 5-[(5-Cyanopyridin-2-yl)amino]-N-(6-{[1-(2-fluoroethyl)piperidin-4-yl]oxy}pyridin-3-yl)-3-methyl-1,2-thiazole-4-carboxamide], the IC50 was not below 20000 nM on CDK2/CycE and 20000 nM in experiment [1].
Consider `Cc1nsc(Nc2cnc(C(F)(F)F)cn2)c1C(=O)Nc1ccc(O[C@H]2CCN(CC(F)F)C[C@@H]2F)nc1` [Example 362], for which the results for the IC50 (at CDK2/CycE; in experiment [1]) were more than 20000 nM and 59 nM, respectively.
For the compound `Cc1nsc(Nc2cnc(C(F)(F)F)cn2)c1C(=O)Nc1ccc(O[C@@H]2CCN(CC(F)(F)F)C2)nc1` [Example 380, 3-methyl-N-(6-{[(3R)-1-(2,2,2-trifluoroethyl)pyrrolidin-3-yl]oxy}pyridin-3-yl)-5-{[5-(trifluoromethyl)pyrazin-2-yl]amino}-1,2-thiazole-4-carboxamide], the figures for the IC50 (at CDK2/CycE; in experiment [1]) were more than 20000 nM and 330 nM, respectively.
The like results for `Cc1nsc(Nc2cnc(C(F)(F)F)cn2)c1C(=O)Nc1ccc(O[C@@H]2CCCN(CC(F)(F)F)C2)nc1` [Example 386, 3-methyl-N-(6-{[(3R)-1-(2,2,2-trifluoroethyl)piperidin-3-yl]oxy}pyridin-3-yl)-5-{[5-(trifluoromethyl)pyrazin-2-yl]amino}-1,2-thiazole-4-carboxamide] were, in that order, more than 20000 nM and 57 nM.
The like results for `Cc1nsc(Nc2cnc(C(F)(F)F)cn2)c1C(=O)Nc1ccc(OCCN(C)CC(F)(F)F)nc1` [Example 350, 3-methyl-N-(6-{2-[methyl(2,2,2-trifluoroethyl)amino]ethoxy}pyridin-3-yl)-5-{[5-(trifluoromethyl)pyrazin-2-yl]amino}-1,2-thiazole-4-carboxamide] were, in that order, not below 20000 nM and 57 nM.
The like results for `Cc1nsc(Nc2cnc(C(F)(F)F)cn2)c1C(=O)Nc1ccc(OCC2CCN(CC(F)F)CC2)nc1` [Example 345, N-(6-{[1-(2,2-difluoroethyl)piperidin-4-yl]methoxy}pyridin-3-yl)-3-methyl-5-{[5-(trifluoromethyl)pyrazin-2-yl]amino}-1,2-thiazole-4-carboxamide] were, in that order, not below 20000 nM and 21 nM.
With `Cc1nsc(Nc2cnc3ccccc3n2)c1C(=O)Nc1ccc(OC2CCCNC2)nc1` (stereo not shown) [Example 32, 3-Methyl-N-[6-(piperidin-3-yloxy)pyridin-3-yl]-5-(quinoxalin-2-ylamino)-1,2-thiazole-4-carboxannide], the figures for the IC50 (on CDK2/CycE; in experiment [1]) were not below 20000 nM and 11000 nM, respectively.
The corresponding values for `Cc1nsc(Nc2cnc(C(F)(F)F)cn2)c1C(=O)Nc1ccc(OC[C@@H]2CCCN(CC(F)F)C2)nc1` [Example 375, N-(6-{[(3R)-1-(2,2-difluoroethyl)piperidin-3-yl]methoxy}pyridin-3-yl)-3-methyl-5-{[5-(trifluoromethyl)pyrazin-2-yl]amino}-1,2-thiazole-4-carboxamide] are more than 20000 nM and 200 nM.
The like results for `Cc1nsc(Nc2cnc(C(F)(F)F)cn2)c1C(=O)Nc1ccc(OCC2CCCN(CCC(F)(F)F)C2)nc1` (stereo not shown) [Example 328, 3-methyl-5-{[5-(trifluoromethyl)pyrazin-2-yl]amino}-N-(6-{[1-(3,3,3-trifluoropropyl)piperidin-3-yl]methoxy}pyridin-3-yl)-1,2-thiazole-4-carboxamide] were, in that order, not below 20000 nM and 37 nM.
The like results for `Cc1nsc(Nc2cnc(C(F)(F)F)cn2)c1C(=O)Nc1ccc(O[C@@H]2CCN(CC(F)(F)F)C[C@H]2F)nc1` [Example 367, N-(6-{[(3R,4R)-3-fluoro-1-(2,2,2-trifluoroethyl)piperidin-4-yl]oxy}pyridin-3-yl)-3-methyl-5-{[5-(trifluoromethyl)pyrazin-2-yl]amino}-1,2-thiazole-4-carboxamide] were, in that order, more than 20000 nM and 37 nM.
As to `CCCN1CC[C@H](Oc2ccc(NC(=O)c3c(C)nsc3Nc3cnc(C(F)(F)F)cn3)cn2)[C@@H](F)C1` [Example 370, N-(6-{[(3S,4S)-3-fluoro-1-propylpiperidin-4-yl]oxy}pyridin-3-yl)-3-methyl-5-{[5-(trifluoromethyl)pyrazin-2-yl]amino}-1,2-thiazole-4-carboxamide], the IC50 was more than 20000 nM on CDK2/CycE and 31 nM in experiment [1].
The corresponding values for `Cc1nsc(Nc2cnc(C(F)(F)F)cn2)c1C(=O)Nc1ccc(OCC2CCN(CC(F)(F)F)CC2)nc1` [Example 346, 3-methyl-N-(6-{[1-(2,2,2-trifluoroethyl)piperidin-4-yl]methoxy}pyridin-3-yl)-5-{[5-(trifluoromethyl)pyrazin-2-yl]amino}-1,2-thiazole-4-carboxamide] are not below 20000 nM and 32 nM.

Values taken from patent US20170334899A1, “AMINO-SUBSTITUTED ISOTHIAZOLES” (Bayer Pharma Aktiengesellschaft, priority 2014, published 2017).
